Source: patent publication US11300509B2, “Cleavable linkers for protein translation reporting” (9412-1126 Québec inc., priority 2020, dated 2022)
No end group written: not given here.

Columns and labels:
Cherry1-10 = target: T1, Cherry1-10 (Discosoma sp., UniProt Q9U6Y8, A164R/C117E/F124L/F177V/H162N/H41T/I125L/I180T/K163Q/K83L/K92T/L150M/L174D/M182K/N42Q/Q66M/R153E/R17H/R36H/S179T/S197I/T21S/V127T/V156A/V175A/V44A/V71A/Y192A/Y194N); experiment: In vitro reconstitution of split Cherry: Cherry11 peptide mixed with Cherry1-10; format: binding
T1 construct: made in house; host or cells: Escherichia coli BL21(DE3)
Description: Fluorescence output was recorded every 0.1 seconds for a duration of 30 seconds.
In vitro fluorescence complementation was performed by mixing purified XFP1-10 protein and chemically synthesized XFP11 peptides and the fluorescence intensity of the reaction was collected with a StepOnePlus real-time thermal cycler (Thermo-Fisher). […] XFP1-10 in TNG buffer or PBS (varied pH) was added to wells of a 96-well microplate coated with 1 mM bovine serum albumin and allowed to equilibrate for 60 seconds. XFP11 peptide was added according to different final peptide concentrations and the microplate was immediately loaded into the fluorescence reader. The fluorescence intensity was measured every 10 seconds for 45 minutes at 32° C. or 37° C. with 495 nm excitation and 520 nm emission. The fluorescence intensity was normalized to the initial fluorescence intensity to express relative fluorescence increase upon fluorescence reconstitution. […] Standard curves for XFP fluorescence measurements were generated by either using reconstituted XFP or XFP purified from E. coli using GFP specific chromatography columns (Bio-Rad). XFP protein concentration was determined using the Bradford assay and absorbance readings at 280 nm with a NanoDrop 2000 (Thermo-Fisher). Samples were serially diluted (1:10 or 1:5) and 10 μL samples were imaged to reduce any non-linear fluorescence excitation effects. […]

GFP1-10 = target: T2, GFP1-10 (Aequorea victoria, UniProt P42212, A206V/E111V/F64L/F99S/I128T/I167V/I171V/K166T/M153T/N105K/Q80R/S205T/S30R/S65T/V163A/Y145F/Y39I); experiment: In vitro reconstitution (fluorescence complementation) of split GFP: GFP11 peptide mixed with purified GFP1-10; format: binding; design: half time of reconstitution: dose or concentration left out as unconfirmed; conditions: for observed rate constant (kobs) of GFP11 peptide binding: pseudo-first order
T2 construct: Residues 1-213 of GFP, corresponding to the first 10 beta strands of GFP (GFP1-10); made in house; host or cells: Escherichia coli BL21(DE3)
Description: FIGS. 1F-G, relating to the stoichiometric production of GFP11 reporter as a function of time using a PTR linker to allow instantaneous detection of protein translation, are graphs that illustrate that reconstitution of split GFP as a function of seconds passed. […] Within the first second of reconstitution, i.e., in milliseconds, fluorescence emission begins (FIG. 1F), and the fluorescence intensity of the reaction rose logarithmically and began to saturate after 5 minutes (FIG. 1G). […] To obtain kinetic measurements of the reconstitution reaction at sub-second timescales, an ultrasensitive fluorescence spectrophotometer was used. A stopped-flow dispenser was used to mix and deliver known volumes of GFP1-10 and GFP11 proteins. This allowed the establishment of a to for the moment split GFP components first interact. […] Fluorescence increase over time from the bimolecular reaction was modeled as pseudo-first order and fit to a one phase association curve to determine the observed rate constant (kobs) of GFP11 peptide binding for each concentration of GFP11 tested. For 50 nM GFP11 and excess GFP1-10, the kobs is 0.003 s-1.
In the volume of a medium-size cell, the slower, lowest concentration reactions would generate tens of reconstituted molecules per second, and for the average protein synthesis hundreds per second. […].
In vitro fluorescence complementation was performed by mixing purified XFP1-10 protein and chemically synthesized XFP11 peptides and the fluorescence intensity of the reaction was collected with a StepOnePlus real-time thermal cycler (Thermo-Fisher). […] XFP11 peptide was added according to different final peptide concentrations and the microplate was immediately loaded into the fluorescence reader. The fluorescence intensity was measured every 10 seconds for 45 minutes at 32° C. or 37° C. with 495 nm excitation and 520 nm emission. The fluorescence intensity was normalized to the initial fluorescence intensity to express relative fluorescence increase upon fluorescence reconstitution. […] Standard curves for XFP fluorescence measurements were generated by either using reconstituted XFP or XFP purified from E. coli using GFP specific chromatography columns (Bio-Rad). XFP protein concentration was determined using the Bradford assay and absorbance readings at 280 nm with a NanoDrop 2000 (Thermo-Fisher). Samples were serially diluted (1:10 or 1:5) and 10 μL samples were imaged to reduce any non-linear fluorescence excitation effects. […] Total fluorescence intensity (in photon counts) was collected every 0.1 s or 0.01 s for varying durations.
Pearson's linear correlations were calculated by fitting the data to a simple linear regression model, with the coefficient of determination, R2. […]

Row | Substance | onset of reconstitution upon addition of peptide (Cherry1-10; Cherry1-10 and Cherry11 in vitro, FIG. 3E) | fluorescence signal strength of reconstitution (Cherry1-10; compared with split GFP and split Dendra2) | observed rate constant (kobs) of GFP11 peptide binding (GFP1-10; 50 nM GFP11 and excess GFP1-10, one phase association fit) | half time of reconstitution (GFP1-10; one phase association fit, FIG. 1G) | observed rate constant (kobs) of GFP11 peptide binding (GFP1-10; one phase association fit, FIG. 1G, R2=0.99) | time to detection of green fluorescence upon mixing (GFP1-10; stopped-flow mixing of GFP1-10 and GFP11)
1 | Cherry11: small fragment of split mCherry red fluorescent protein; purified peptide that reconstitutes with Cherry1-10 (MGGGGSGGGGSYTIVEQYERAEGRHSTGG) | immediately | overall weaker signal compared to split GFP and split Dendra2 | – | – | – | –
2 | RDHMVLHEYVNAAGIT [GFP11] | – | – | 0.003 s⁻¹ | 95 s | 0.007 ± 0.0001 s⁻¹ | ≤ 100 ms
